Active and inactive are the calls of the source. The rule behind the calls is not given here.

For data set [1], the target named is T1, Heat shock protein HSP 90-alpha (Homo sapiens, UniProt P07900). As to the kind of experiment: Binding affinity to recombinant Hsp90 alpha (unknown origin) by surface plasmon resonance.
Data set [2] has as its target T1, Heat shock protein HSP 90-alpha. As to the kind of experiment: Inhibition of Hsp90 alpha (unknown origin) ATPase activity after 60 mins by fluorimetry.
For data set [3] the target is unchanged. Nature of the data set: Inhibition of Hsp90 alpha (unknown origin) assessed as thermal-induced citrate synthase aggregation at 4 fold molar excess by fluorimetry.
In data set [4] the test system is HeLa. As to the kind of experiment: Cytotoxicity against human HeLa cells assessed as cell viability up to 100 uM after 24 hrs by MTT assay. The format is cell-based.
In data set [5] the test system is HeLa. Nature of the data set: Increase in Hsp70 level in human HeLa cells at 50 uM after 24 hrs by Western blot analysis. The format is functional, cell-based.
Data set [6] has as its target T1, Heat shock protein HSP 90-alpha. As to the kind of experiment: Inhibition of Hsp90 alpha in human HeLa cells assessed as reduction in p-AKT level at 50 uM after 24 hrs by Western blot analysis. The format is cell-based.
Data set [7] has the same target. As to the kind of experiment: Inhibition of Hsp90 alpha in human HeLa cells assessed as reduction in ERK1/ERK2 level at 50 uM after 24 hrs by Western blot analysis. The data set is classed as cell-based.
The target is the same in data set [8]. As to the kind of experiment: Inhibition of Hsp90 alpha (unknown origin) assessed as thermal-induced citrate synthase aggregation at 0.3 uM by fluorimetry relative to control.

As for `CO[C@H]1C[C@@H]2[C@@H]3[C@@H](OC[C@]3(O)C[C@H]2OC(=O)c2ccc(O)cc2)O1`, the Kd entry in data set [1] is on record as “Not Active”.
The same measure, in the same setting: next, `O[C@@H]1C[C@@]2(O)CO[C@H]3OCC[C@@H]1[C@H]32`: “Not Active”.
With `O=C(OC[C@H]1O[C@@H](O[C@@H]2OC=C[C@@H]3[C@H]2[C@](O)(CO)C[C@H]3OC(=O)c2ccc(O)cc2)[C@H](O)[C@@H](O)[C@@H]1O)c1ccc(O)cc1`, the Kd in data set [1] (read-out: Kd) amounted to 139 nM.
As to `COc1cc(/C=C/C(=O)O[C@@H]2C[C@@](O)(CO)[C@H]3[C@H](O[C@@H]4O[C@H](CO)[C@@H](O)[C@H](O)[C@H]4O)OC=C[C@H]32)ccc1O`, the Kd entry in data set [1] is on record as “Not Active”.
On to `O=C(O[C@H]1[C@@H]2C=CO[C@@H](O[C@@H]3O[C@H](CO)[C@@H](O)[C@H](O)[C@H]3O)[C@@H]2[C@@]2(CO)O[C@@H]12)[C@H]1[C@H](c2ccc(O)cc2)[C@H](C(=O)O[C@H]2[C@@H]3C=CO[C@@H](O[C@@H]4O[C@H](CO)[C@@H](O)[C@H](O)[C@H]4O)[C@@H]3[C@@]3(CO)O[C@@H]23)[C@H]1c1ccc(O)cc1` [ARGENTEOSIDE B], for which, in data set [2], the inhibition result is “Dose-dependent effect”. Moreover, in data set [1] (read-out: Kd), the Kd was 50 nM.
`O=C(O[C@@H]1C=C(CO)[C@@H]2[C@H](O[C@@H]3O[C@H](CO)[C@@H](O)[C@H](O)[C@H]3O)OC=C[C@@H]21)c1ccc(O)cc1`: in data set [1], the Kd entry is reported as “Not Active”.
For the molecule `O=C(/C=C\c1ccc(O)cc1)O[C@@H]1C[C@@](O)(CO)[C@H]2[C@H](O[C@@H]3O[C@H](CO)[C@@H](O)[C@H](O)[C@H]3O)OC=C[C@H]21`, the Kd in data set [1] (read-out: Kd) was 73 nM.
`COc1ccc(C=CC(=O)O[C@@H]2C[C@@](O)(CO)[C@H]3[C@H](O[C@@H]4O[C@H](CO)[C@@H](O)[C@H](O)[C@H]4O)OC=C[C@H]32)cc1` (mixture of isomers): the Kd entry in data set [1] is “Not Active”.
In the case of `O=C(/C=C/c1ccc(O)cc1)O[C@H]1[C@@H]2C=CO[C@@H](O[C@@H]3O[C@H](CO)[C@@H](O)[C@H](O)[C@H]3O)[C@@H]2[C@@](O)(CO)[C@@H]1O` [STEREOSPERMOSIDE], the Kd result in data set [1] is “Not Active”.
As for `COc1cc(/C=C/C(=O)O[C@H]2[C@@H]3C=CO[C@@H](O[C@@H]4O[C@H](CO)[C@@H](O)[C@H](O)[C@H]4O)[C@@H]3[C@@]3(CO)O[C@@H]23)ccc1O`, the Kd result in data set [1] is “Not Active”.
For the molecule `O=C(C=Cc1ccc(O)cc1)O[C@@H]1C[C@@](O)(CO)[C@H]2[C@H](O[C@@H]3O[C@H](CO)[C@@H](O)[C@H](O)[C@H]3O)OC=C[C@H]21` (mixture of isomers), the Kd entry in data set [1] is listed as “Not Active”.
In the case of `COc1ccc(C=CC(=O)O[C@@H]2C[C@@](O)(CO)[C@H]3[C@H](O[C@@H]4O[C@H](CO)[C@@H](O)[C@H](O)[C@H]4O)OC=C[C@H]32)cc1O` (mixture of isomers), the Kd entry in data set [1] was “Not Active”.
As for `O=C(OC[C@H]1O[C@@H](O[C@@H]2C[C@@]3(O)CO[C@H]4OCC[C@@H]2[C@H]43)[C@H](O)[C@@H](O)[C@@H]1O)c1ccc(O)cc1`, the Kd result in data set [1] is recorded as “Not Active”.
`O=C(/C=C/c1ccc(O)cc1)O[C@H]1[C@@H]2C=CO[C@@H](O[C@@H]3O[C@H](CO)[C@@H](O)[C@H](O)[C@H]3O)[C@@H]2[C@@]2(CO)O[C@@H]12` [SPECIOSIDE]: the inhibition entry in data set [2] was “Dose-dependent effect”. Moreover, the Kd in data set [1] (read-out: Kd) is 26 nM.
For the molecule `O=C(O[C@H]1[C@@H]2CCO[C@@H](O[C@@H]3O[C@H](CO)[C@@H](O)[C@H](O)[C@H]3O)[C@@H]2[C@@]2(CO)O[C@@H]12)c1ccc(O)cc1`, the Kd in data set [1] (read-out: Kd) was found to be 16 nM.
`O=C(O[C@H]1[C@@H]2C=CO[C@@H](O[C@@H]3O[C@H](CO)[C@@H](O)[C@H](O)[C@H]3O)[C@@H]2[C@@]2(CO)O[C@@H]12)[C@H]1[C@H](C(=O)O[C@H]2[C@@H]3C=CO[C@@H](O[C@@H]4O[C@H](CO)[C@@H](O)[C@H](O)[C@H]4O)[C@@H]3[C@@]3(CO)O[C@@H]23)[C@@H](c2ccc(O)cc2)[C@@H]1c1ccc(O)cc1` [ARGENTEOSIDE A]: in data set [2], the inhibition entry was “Dose-dependent effect”. In addition, the Kd in data set [1] (read-out: Kd) came out at 14 nM. Further, the inhibition result in data set [3], in data set [6], in data set [7] and in data set [8] was “Active” throughout. Also, the Activity result in the data set with HeLa [4] is reported as “Non-toxic”. In addition, in the data set on HeLa [5], the outcome was inactive.
Turning to `O=C(/C=C/c1ccc(O)c(O)c1)O[C@@H]1C2C=CO[C@H](O[C@@H]3O[C@H](CO)[C@@H](O)[C@H](O)[C@H]3O)C2[C@]2(CO)O[C@H]12` (stereo partly specified) [VERMINOSIDE], the Kd in data set [1] (read-out: Kd) was determined as 348 nM.
In the case of `O[C@H]1[C@@H]2CCO[C@@H]3OC[C@@](O)([C@@H]32)[C@@H]1O` [REHMAGLUTIN A], in data set [1] (read-out: Kd), the Kd stood at 2390 nM.
As for `COc1cc(C(=O)O[C@H]2[C@@H]3C=CO[C@@H](O[C@@H]4O[C@H](CO)[C@@H](O)[C@H](O)[C@H]4O)[C@@H]3[C@@]3(CO)O[C@@H]23)ccc1O` [PICROSIDE II], the Kd entry in data set [1] is “Not Active”.
Consider `O=C(O[C@@H]1C[C@@]2(O)CO[C@H]3O[C@H](O)C[C@@H]1[C@H]32)c1ccc(O)cc1` [CATALPIN], for which, in data set [1] (read-out: Kd), the Kd was determined as 5920 nM.
As to `C[C@H]1[C@H]2[C@H](O[C@@H]3O[C@H](CO)[C@@H](O)[C@H](O)[C@H]3O)OC[C@](C)(O)[C@H]2C[C@@H]1O` [ADENOSMOSIDE], the Kd entry in data set [1] is recorded as “Not Active”.
Regarding `O=C(O[C@@H]1C[C@@](O)(CO)[C@H]2[C@H](O[C@@H]3O[C@H](CO)[C@@H](O)[C@H](O)[C@H]3O)OC=C[C@H]21)c1ccc(O)cc1`, the Kd in data set [1] (read-out: Kd) worked out at 31 nM.
For the molecule `O=C(O[C@@H]1C[C@@]2(O)CO[C@@H]3CC1C2[C@H](O[C@@H]1O[C@H](CO)[C@@H](O)[C@H](O)[C@H]1O)O3)c1ccc(O)cc1`, the Kd entry in data set [1] is on record as “Not Active”.
Turning to `O=C(O[C@H]1[C@@H]2C=CO[C@@H](O[C@@H]3O[C@H](CO)[C@@H](O)[C@H](O)[C@H]3O)[C@@H]2[C@@]2(CO)O[C@@H]12)c1ccc(O)cc1` [CATALPOSIDE], the inhibition entry in data set [2] was “Dose-dependent effect”. Further, the Kd in data set [1] (read-out: Kd) came to 12 nM.
For `C=C[C@H]1[C@H](O[C@@H]2O[C@H](CO)[C@@H](O)[C@H](O)[C@H]2O)OC=C(C(=O)OC)[C@H]1CC=O` [SECOLOGANIN], the Kd entry in data set [1] is given as “Not Active”.
With `C=C[C@H]1[C@H](O[C@@H]2O[C@H](CO)[C@@H](O)[C@H](O)[C@H]2O)OC=C2C(=O)OCC[C@H]21` [SWEROSIDE], in data set [1], the Kd entry was “Not Active”.

Values taken from ChEMBL document CHEMBL2331154 (J Med Chem, 2013).
